Measurements as given in patent US9695155B2, “Herbicidal substituted pyrimidinyloxy benzene compounds” (E. I. DU PONT DE NEMOURS AND COMPANY, priority 2013, dated 2017).

What was measured:
[1] = system: pigweed; assay: Test A preemergence; assay type: in vivo, Amaranthus retroflexus; conditions: for Pigweed plant response rating: 500 g ai/ha
In short: (§1)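 Pre- and postemergence greenhouse screen. Soil: loam + sand. Spray carrier: solvent mixture, non-phytotoxic, with surfactant. Post timing at 1–2 leaves, height 2–10 cm. Readout: visual injury on a 0–100 scale roughly 10 days after application, untreated plants as reference.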

[2] = system: wild oat; assay: Test C postemergence; assay type: in vivo, Avena fatua
In short: (§2)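 Plants were kept under greenhouse conditions for 13–15 days following spray. Pre-emergent application went to soil (loam–sand), post-emergent to foliage at 1–4 leaves. Evaluation: visual, percent control against untreated checks.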

[3] = system: blackgrass; assay: Test C postemergence; assay type: in vivo, Alopecurus myosuroides; conditions: for Blackgrass plant response rating / Plant response rating, Blackgrass: scale 0 to 100 (0 no effect, 100 complete control)
In short: as §2

[4] = system: johnsongrass; assay: Test C postemergence; assay type: in vivo, Sorghum halepense; conditions: for Johnsongrass plant response rating / Plant response rating, Johnsongrass: scale 0 to 100 (0 no effect, 100 complete control)
In short: as §2

[5] = system: giant foxtail; assay: Test A preemergence; assay type: in vivo, Setaria faberii; conditions: for Plant response rating, Foxtail, Giant: 125 g ai/ha; for Foxtail, Giant plant response rating: 500 g ai/ha
In short: as §1

[6] = system: waterhemp; assay: Test C postemergence; assay type: in vivo, Amaranthus rudis
In short: as §2

[7] = system: galium; assay: Test C postemergence; assay type: in vivo, Galium aparine; conditions: for Galium plant response rating / Plant response rating, Galium: scale 0 to 100 (0 no effect, 100 complete control)
In short: as §2

[8] = system: barnyardgrass; assay: Test C postemergence; assay type: in vivo, Echinochloa crus-galli; conditions: for Barnyardgrass plant response rating / Plant response rating, Barnyardgrass: scale 0 to 100 (0 no effect, 100 complete control)
In short: as §2

[9] = system: lambsquarters; assay: Test C postemergence; assay type: in vivo, Chenopodium album
In short: as §2

[10] = system: wheat; assay: Test A preemergence; assay type: in vivo, Triticum aestivum
In short: as §1

[11] = system: velvetleaf; assay: Test A postemergence; assay type: in vivo, Abutilon theophrasti; conditions: 0 to 100 scale where 0 is no effect and 100 is complete control; for Plant response rating, Velvetleaf: 500 g ai/ha
In short: as §1

[12] = system: barnyardgrass; assay: Test A preemergence; assay type: in vivo, Echinochloa crus-galli; conditions: for Plant response rating, Barnyardgrass: 125 g ai/ha; for Barnyardgrass plant response rating: 500 g ai/ha
In short: as §1

[13] = system: pigweed; assay: Test A postemergence; assay type: in vivo, Amaranthus retroflexus; conditions: 0 to 100 scale where 0 is no effect and 100 is complete control; for Plant response rating, Pigweed: 500 g ai/ha
In short: as §1

[14] = system: oilseed rape; assay: Test C postemergence; assay type: in vivo, Brassica napus
In short: as §2

[15] = system: large (Lg) crabgrass; assay: Test C postemergence; assay type: in vivo, Digitaria sanguinalis; conditions: for Crabgrass, Large plant response rating / Plant response rating, Crabgrass, Large: scale 0 to 100 (0 no effect, 100 complete control)
In short: as §2

[16] = 125 g ai/ha, 0 to 100 scale where 0 is no effect and 100 is complete control
[17] = 0 to 100 scale, 0 no effect, 100 complete control, approx. 10 days
[18] = Postemergence, 31 g ai/ha, scale 0 to 100 (0 no effect, 100 complete control), 13 to 15 days
[19] = Postemergence, 62 g ai/ha, scale 0 to 100 (0 no effect, 100 complete control)
[20] = 16 g ai/ha, postemergence, visual rating, 13 to 15 days
[21] = Postemergence, 31 g ai/ha, 13 to 15 days
[22] = 0 to 100 scale where 0 is no effect and 100 is complete control
[23] = 16 g ai/ha, postemergence, 0 is no effect, 100 is complete control
[24] = 31 g ai/ha, postemergence, visual rating, scale 0 to 100 (0 no effect, 100 complete control), 13 to 15 days
[25] = 125 g ai/ha, postemergence, visual rating, scale 0 to 100 (0 no effect, 100 complete control)
[26] = 31 g ai/ha, postemergence, visual rating, 13 to 15 days
[27] = 125 g ai/ha, postemergence, visual rating

FC(F)Oc1cnn(-c2ccccc2Oc2ncc(Cl)cn2)c1 [Compound 98]
Plant response rating, Pigweed [1, 16]: 100
Pigweed plant response rating [1, 17]: 100
Plant response rating (0 to 100), Oat, Wild ([2]; 125 g ai/ha, postemergence): 20
Plant response rating, Oat, Wild [2, 18]: 5
Plant response rating, Oat, Wild [2, 19]: 10
Blackgrass plant response rating [3, 20]: 0
Plant response rating (0 to 100), Blackgrass ([3]; 125 g ai/ha, postemergence): 20
Plant response rating, Blackgrass [3, 21]: 5
Plant response rating, Blackgrass ([3]; Postemergence, 62 g ai/ha): 30
Johnsongrass plant response rating [4, 20]: 0
Plant response rating (0 to 100), Johnsongrass ([4]; 125 g ai/ha, postemergence): 10
Plant response rating, Johnsongrass [4, 21]: 0
Plant response rating, Johnsongrass ([4]; Postemergence, 62 g ai/ha): 5
Plant response rating, Foxtail, Giant [5, 22]: 100
Foxtail, Giant plant response rating [5, 17]: 100
Plant response rating (0 to 100), Waterhemp ([6]; 125 g ai/ha, postemergence): 85
Plant response rating, Waterhemp [6, 18]: 50
Plant response rating, Waterhemp [6, 19]: 80
Galium plant response rating [7, 20]: 50
Plant response rating (0 to 100), Galium ([7]; 125 g ai/ha, postemergence): 80
Plant response rating, Galium [7, 21]: 60
Plant response rating, Galium ([7]; Postemergence, 62 g ai/ha): 75
Barnyardgrass plant response rating [8, 20]: 5
Plant response rating (0 to 100), Barnyardgrass ([8]; 125 g ai/ha, postemergence): 15
Plant response rating, Barnyardgrass [8, 21]: 5
Plant response rating, Barnyardgrass ([8]; Postemergence, 62 g ai/ha): 10
Plant response rating (0 to 100), Lambsquarters ([9]; 125 g ai/ha, postemergence): 98
Plant response rating, Lambsquarters [9, 18]: 35
Plant response rating, Lambsquarters [9, 19]: 80
Plant response rating, Wheat [10, 16]: 0
Plant response rating, Velvetleaf [11]: 100
Plant response rating, Barnyardgrass [12, 22]: 50
Barnyardgrass plant response rating [12, 17]: 100
Plant response rating, Pigweed [13]: 100
Plant response rating (0 to 100), Oilseed Rape ([14]; 125 g ai/ha, postemergence): 98
Plant response rating, Oilseed Rape [14, 18]: 80
Plant response rating, Oilseed Rape [14, 19]: 95
Crabgrass, Large plant response rating [15, 20]: 5
Plant response rating (0 to 100), Crabgrass, Large ([15]; 125 g ai/ha, postemergence): 5
Plant response rating, Crabgrass, Large [15, 21]: 5
Plant response rating, Crabgrass, Large ([15]; Postemergence, 62 g ai/ha): 5

Fc1cnc(Oc2cccc(C(F)F)c2-n2cc(C(F)(F)F)cn2)nc1 [Compound 164]
Pigweed plant response rating (0 to 100 scale) ([1]; 125 g ai/ha): 100
Pigweed plant response rating [1, 22]: 100
Plant response rating (0 to 100), Oat, Wild [2, 23]: 0
Oat, Wild plant response rating [2, 24]: 5
Plant response rating, Oat, Wild [2, 25]: 15
Plant response rating, Oat, Wild [2, 19]: 5
Plant response rating (0 to 100), Blackgrass [3, 23]: 0
Blackgrass plant response rating [3, 26]: 0
Plant response rating, Blackgrass [3, 27]: 15
Plant response rating, Blackgrass ([3]; Postemergence, 62 g ai/ha): 5
Plant response rating (0 to 100), Johnsongrass [4, 23]: 0
Johnsongrass plant response rating [4, 26]: 0
Plant response rating, Johnsongrass [4, 27]: 10
Plant response rating, Johnsongrass ([4]; Postemergence, 62 g ai/ha): 5
Plant response rating, Foxtail, Giant [5, 22]: 90
Foxtail, Giant plant response rating [5, 22]: 100
Plant response rating (0 to 100), Waterhemp [6, 23]: 50
Waterhemp plant response rating [6, 24]: 45
Plant response rating, Waterhemp [6, 25]: 75
Plant response rating, Waterhemp [6, 19]: 65
Plant response rating (0 to 100), Galium [7, 23]: 50
Galium plant response rating [7, 26]: 55
Plant response rating, Galium [7, 27]: 65
Plant response rating, Galium ([7]; Postemergence, 62 g ai/ha): 80
Plant response rating (0 to 100), Barnyardgrass [8, 23]: 0
Barnyardgrass plant response rating [8, 26]: 0
Plant response rating, Barnyardgrass [8, 27]: 5
Plant response rating, Barnyardgrass ([8]; Postemergence, 62 g ai/ha): 5
Plant response rating (0 to 100), Lambsquarters [9, 23]: 15
Lambsquarters plant response rating [9, 24]: 25
Plant response rating, Lambsquarters [9, 25]: 65
Plant response rating, Lambsquarters [9, 19]: 40
Wheat plant response rating (0 to 100 scale) ([10]; 125 g ai/ha): 20
Wheat plant response rating ([10]; 500 g ai/ha, 0 to 100 scale where 0 is no effect and 100 is complete control): 90
Velvetleaf plant response rating ([11]; 125 g ai/ha): 100
Plant response rating, Velvetleaf [11]: 100
Plant response rating, Barnyardgrass [12, 22]: 90
Barnyardgrass plant response rating [12, 22]: 100
Pigweed plant response rating ([13]; 125 g ai/ha): 100
Plant response rating, Pigweed [13]: 100
Plant response rating (0 to 100), Oilseed Rape [14, 23]: 10
Oilseed Rape plant response rating [14, 24]: 10
Plant response rating, Oilseed Rape [14, 25]: 60
Plant response rating, Oilseed Rape [14, 19]: 55
Plant response rating (0 to 100), Crabgrass, Large [15, 23]: 5
Crabgrass, Large plant response rating [15, 26]: 5
Plant response rating, Crabgrass, Large [15, 27]: 10
Plant response rating, Crabgrass, Large ([15]; Postemergence, 62 g ai/ha): 5
